Measured values taken from US8546579B2, “Bicycloheteroaryl compounds as P2X7 modulators and uses thereof” (Evotec (US) Inc., priority 2006, dated 2013).
pIC50: −log10 of the molar value.

Biological target: T1, P2X7 receptor (Homo sapiens, UniProt Q99572)
T1 construct: host or cells: THP-1 cells differentiated with LPS and IFN-γ
T1 sequence (Q99572 1-595): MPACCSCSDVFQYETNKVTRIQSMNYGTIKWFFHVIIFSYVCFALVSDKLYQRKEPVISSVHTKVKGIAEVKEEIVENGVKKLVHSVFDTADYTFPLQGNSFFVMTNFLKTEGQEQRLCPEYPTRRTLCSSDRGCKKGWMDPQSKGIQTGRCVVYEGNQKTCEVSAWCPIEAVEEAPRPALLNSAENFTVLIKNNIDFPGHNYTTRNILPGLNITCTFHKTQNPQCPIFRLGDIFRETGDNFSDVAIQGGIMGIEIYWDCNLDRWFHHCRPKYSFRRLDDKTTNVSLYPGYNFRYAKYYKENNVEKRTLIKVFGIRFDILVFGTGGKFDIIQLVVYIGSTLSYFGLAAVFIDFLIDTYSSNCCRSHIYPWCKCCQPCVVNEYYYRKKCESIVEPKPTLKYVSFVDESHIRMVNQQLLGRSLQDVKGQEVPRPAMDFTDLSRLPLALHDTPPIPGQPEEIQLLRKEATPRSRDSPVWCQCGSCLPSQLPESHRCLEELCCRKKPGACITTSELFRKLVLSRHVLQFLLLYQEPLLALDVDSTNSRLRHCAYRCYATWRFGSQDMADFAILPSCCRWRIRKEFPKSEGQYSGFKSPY
Assay: IL-1β release assay in differentiated THP-1 cells stimulated with BzATP (Example 9)
Type: cell-based
Conditions: for inhibition at 0.3 µM: 0.3 μM compound, '+' class symbols, read-out: IL-1β % Inhib. @ 0.3 μM; for inhibition at 0.3 µM / inhibition at 0.1 µM: differentiated THP-1 cells, BzATP 250 uM; for pIC50: THP-1 cells, BzATP-stimulated IL-1β release, four parameter logistic fit; for inhibition at 0.1 µM: 0.1 μM compound, '*' class symbols, read-out: IL-1β % Inhib. (asterisk classes, 0.1 μM)
Description: THP-1 cells (ATCC Cat # 285-IF-100) are plated in 96 well plates at a concentration of 200,000 cells per well and allowed to differentiate in RPMI-1640 media (ATCC Cat # 30-2001) containing 10% FBS, 100 IU/mL penicillin, 100 ug/mL streptomycin, 100 ng/mL LPS and 100 ng/mL IFN-γ for 16 hours. Following differentiation, the cells are treated for an additional 2 hours in RPMI-1640 media containing 100 IU/mL penicillin, 100 ug/mL streptomycin and fresh LPS at 100 ng/mL. The cells are then pretreated for 30 minutes with the compound of interest at the appropriate concentration in RPMI media containing 100 IU/mL penicillin, 100 ug/mL streptomycin. Following the pretreatment 2′,3′-O-(4-benzoylbenzoyl)-adenosine 5′-triphosphate (Sigma Aldrich Cat # B6396) is added to a final concentration of 250 uM and the cells are incubated for an additional 45 minutes. 30 uL of cell supernatant is then collected and IL-1β levels determined via ELISA (R&D systems Cat. # HSLB50) according to manufacturer's recommendations using the Tecan Safire plate reader. Background adjusted IL-1β levels of drug treated and non-treated cells are used to calculate the percent inhibition.
The compounds set forth in Table 1 were tested for activity in a cellular model as described herein. Specifically, cells were pretreated with differing amounts of the compound under test and released IL-1β determined as in Example 9, above. Measurements were made and IC50 values, presented in Table 2, below, were determined by fitting the data to a four parameter logistic equation using GraphPad Prism software (GraphPad Software, Inc). The equation may be expressed by the following formula: Y=Bottom+(Top−Bottom)/(1+10^((Log EC50−X)*HillSlope)) Where X is the logarithm of concentration, Y is the response and Y starts at Bottom and goes to Top with a sigmoid shape.

| SMILES | inhibition at 0.3 µM [%] | pIC50 | inhibition at 0.1 µM [%] |
| --- | --- | --- | --- |
| COc1ccc(CC(=O)Nc2cccc3c(=O)n(CCN(C)C)ccc23)cc1 [Compound 1001] | 51 to 75 | 6.62 | – |
| Cc1ccc(CCC(=O)Nc2cccc3c(=O)n(CCN(C)C)ccc23)cc1 [Compound 1002] | ≥ 76 | 7.14 | – |
| CN(C)CCn1ccc2c(NC(=O)CCc3ccccc3)cccc2c1=O [Compound 1003] | 0 to 25 | < 6.00 | – |
| CN(C)CCn1ccc2c(NC(=O)Cc3ccc(Cl)cc3)cccc2c1=O [Compound 1004] | ≥ 76 | 6.96 | – |
| Cc1ccc(CC(=O)Nc2cccc3c(=O)n(CCN(C)C)ccc23)cc1 [Compound 1005] | ≥ 76 | 7.40 | – |
| CN(C)CCn1ccc2c(NC(=O)c3ccccc3)cccc2c1=O [Compound 1006, N-[2-(2-Dimethylamino-ethyl)-1-oxo-1,2-dihydro-isoquinolin-5-yl]-benzamide] | 0 to 25 | 7.00 | – |
| Cc1ccccc1C(=O)Nc1cccc2c(=O)n(CCN(C)C)ccc12 [Compound 1007] | 0 to 25 | < 6.00 | – |
| CN(C)CCn1ccc2c(NC(=O)c3ccc(S(C)(=O)=O)cc3)cccc2c1=O [Compound 1008] | – | < 6.00 | – |
| CN(C)CCn1ccc2c(NC(=O)CCc3ccc(S(C)(=O)=O)cc3)cccc2c1=O [Compound 1009] | 0 to 25 | < 6.00 | – |
| CN(C)CCn1ccc2c(NC(=O)CC3CCN(C(=O)OC(C)(C)C)CC3)cccc2c1=O [Compound 1010] | 0 to 25 | < 6.00 | – |
| CC(=O)OCCn1ccc2c(NC(=O)CC3CCN(C(=O)OC(C)(C)C)CC3)cccc2c1=O [Compound 1011] | 0 to 25 | < 6.00 | – |
| CC(=O)OCCn1ccc2c(NC(=O)C3CCN(C(=O)OC(C)(C)C)CC3)cccc2c1=O [Compound 1012] | 26 to 50 | 6.38 | – |
| O=C(CC1CCCCCC1)Nc1cccc2c(=O)n(Cc3ccc4c(c3)OCCO4)ccc12 [Compound 1013, 2-Cycloheptyl-N-[2-(2,3-dihydro-benzo[1,4]dioxin-6-ylmethyl)-1-oxo-1,2-dihydro-isoquinolin-5-yl]-acetamide] | ≥ 76 | 9.45 | – |
| CC(=O)OCCn1ccc2c(NC(=O)c3ccc(C(F)(F)F)cc3C(F)(F)F)cccc2c1=O [Compound 1014] | 26 to 50 | 6.49 | – |
| CC(=O)OCCn1ccc2c(NC(=O)CC3(O)CCCCCC3)cccc2c1=O [Compound 1015] | ≥ 76 | 6.77 | – |
| CC(=O)OCCn1ccc2c(NC(=O)Cc3ccc(C(F)(F)F)cc3)cccc2c1=O [Compound 1016] | ≥ 76 | 6.47 | – |
| CN(C)CCn1ccc2c(NC(=O)C(Cl)c3ccccc3)cccc2c1=O (stereo not shown) [Compound 1017] | 26 to 50 | 6.43 | – |
| CN(C)CCn1ccc2c(NC(=O)Cc3ccc(F)cc3)cccc2c1=O [Compound 1018] | 0 to 25 | < 6.00 | – |
| CN(C)CCn1ccc2c(NC(=O)Cc3ccccc3)cccc2c1=O [Compound 1019] | 0 to 25 | < 6.00 | – |
| CCC(C(=O)Nc1cccc2c(=O)n(CCN(C)C)ccc12)c1ccccc1 (stereo not shown) [Compound 1020] | 0 to 25 | < 6.00 | – |
| COc1cccc(CC(=O)Nc2cccc3c(=O)n(CCN(C)C)ccc23)c1 [Compound 1021] | ≥ 76 | < 6.00 | – |
| COc1ccc(CC(=O)Nc2cccc3c(=O)n(CCN(C)C)ccc23)c(OC)c1 [Compound 1022] | 0 to 25 | < 6.00 | – |
| CC(=O)OCCn1ccc2c(NC(=O)Cc3ccc(Cl)c(Cl)c3)cccc2c1=O [Compound 1023] | ≥ 76 | 7.27 | – |
| Cn1ccc2c(NC(=O)CC3CCCCCC3)cccc2c1=O [Compound 1024, 2-Cycloheptyl-N-(2-methyl-1-oxo-1,2-dihydro-isoquinolin-5-yl)-acetamide] | ≥ 76 | 7.50 | – |
| CCOc1ccc(C(=O)Nc2cccc3c(=O)n(CC4CCOCC4)ccc23)c(O)c1 [Compound 1025] | 0 to 25 | – | – |

| SMILES | inhibition at 0.3 µM [%] | pIC50 | inhibition at 0.1 µM [%] |
| --- | --- | --- | --- |
| O=C(Nc1cccc2c(=O)n(CC3CCOCC3)ccc12)c1ccc(-c2ccccc2)o1 [Compound 1026] | – | – | 26 to 50 |
| COc1cccc(CCC(=O)Nc2cccc3c(=O)n(CC4CCOCC4)ccc23)c1 [Compound 1027] | 0 to 25 | – | – |
| Cc1ccc(C)c(CC(=O)Nc2cccc3c(=O)n(CC4CCOCC4)ccc23)c1 [Compound 1028] | 0 to 25 | – | – |
| COc1ccc(C(=O)Nc2cccc3c(=O)n(CC4CCOCC4)ccc23)cc1Cl [Compound 1029] | 0 to 25 | – | – |
| CCOc1cccc(C(=O)Nc2cccc3c(=O)n(CC4CCOCC4)ccc23)c1 [Compound 1030] | 0 to 25 | – | – |
| O=C(CCc1ccccc1Cl)Nc1cccc2c(=O)n(CC3CCOCC3)ccc12 [Compound 1031] | 26 to 50 | – | – |
| O=C(CCc1ccc2c(c1)OCO2)Nc1cccc2c(=O)n(CC3CCOCC3)ccc12 [Compound 1032] | 0 to 25 | – | – |
| Cc1cc(C(=O)Nc2cccc3c(=O)n(CC4CCOCC4)ccc23)ccc1Cl [Compound 1033] | 0 to 25 | – | – |
| CC1CCC(C(=O)Nc2cccc3c(=O)n(CCN(C)C)ccc23)CC1 (stereo not shown) [Compound 1034] | – | – | 26 to 50 |
| CN(C)CCn1ccc2c(NC(=O)c3ccc(-c4ccccc4)o3)cccc2c1=O [Compound 1035] | – | – | 0 to 25 |
| Cc1cc(C)c(CC(=O)Nc2cccc3c(=O)n(CCN(C)C)ccc23)c(C)c1 [Compound 1036] | 0 to 25 | – | – |
| CN(C)CCn1ccc2c(NC(=O)CCc3ccccc3Cl)cccc2c1=O [Compound 1037] | 0 to 25 | – | – |
| CN(C)CCn1ccc2c(NC(=O)CCc3ccc4c(c3)OCO4)cccc2c1=O [Compound 1038] | 0 to 25 | – | – |
| COc1ccc(C(=O)Nc2cccc3c(=O)n(CCN4CCOCC4)ccc23)c(C)c1 [Compound 1039] | – | – | 0 to 25 |
| O=C(Nc1cccc2c(=O)n(CCN3CCOCC3)ccc12)c1ccc(-c2ccccc2)o1 [Compound 1040] | 0 to 25 | – | – |
| COc1cccc(CCC(=O)Nc2cccc3c(=O)n(CCN4CCOCC4)ccc23)c1 [Compound 1041] | – | – | 0 to 25 |
| Cc1ccc(C)c(CC(=O)Nc2cccc3c(=O)n(CCN4CCOCC4)ccc23)c1 [Compound 1042] | 0 to 25 | – | – |
| COc1ccc(C(=O)Nc2cccc3c(=O)n(CCN4CCOCC4)ccc23)cc1Cl [Compound 1043] | 0 to 25 | – | – |
| CCOc1cccc(C(=O)Nc2cccc3c(=O)n(CCN4CCOCC4)ccc23)c1 [Compound 1044] | 0 to 25 | – | – |
| O=C(CCc1ccccc1Cl)Nc1cccc2c(=O)n(CCN3CCOCC3)ccc12 [Compound 1045] | 0 to 25 | – | – |
| O=C(CCc1ccc2c(c1)OCO2)Nc1cccc2c(=O)n(CCN3CCOCC3)ccc12 [Compound 1046] | 0 to 25 | – | – |
| CC1CCC(C(=O)Nc2cccc3c(=O)n(CC(C)(C)C)ccc23)CC1 (stereo not shown) [Compound 1047] | – | – | 0 to 25 |
| Cc1ccccc1CCC(=O)Nc1cccc2c(=O)n(CC(C)(C)C)ccc12 [Compound 1048] | – | – | 0 to 25 |
| COc1cccc(CCC(=O)Nc2cccc3c(=O)n(CC(C)(C)C)ccc23)c1 [Compound 1049] | 0 to 25 | – | – |
| Cc1cc(C)c(CC(=O)Nc2cccc3c(=O)n(CC(C)(C)C)ccc23)c(C)c1 [Compound 1050] | 0 to 25 | – | – |
